Results from ChEMBL document CHEMBL3853302, “Anti-inflammatory and Quinone Reductase Inducing Compounds from Fermented Noni (Morinda citrifolia) Juice Exudates” (J Nat Prod, 2016).
Activity calls are given as the source filed them. The calls are words filed in the database; no cut-off is given here.

Columns and labels:
[1] = Toxicity in HEK293 cells assessed as decrease in cell survival at 50 uM; format: cell-based; settings: human, hek293, 50 µM
HEK293 = experiment: Inhibition of TNF-alpha-activated NFkappaB (unknown origin) expressed in HEK293 cells at 50 uM after 6 hrs by luciferase reporter gene assay relative to control; format: cell-based; settings: Homo sapiens
[2] = Induction of quinone reductase-1 in mouse Hepa-1c1c7 cells assessed as reduction of 3-(4,5-dimethylthiazol-2-yl)-2,5-diphenyltetrazolium bromide at 50 uM after 48 hrs by crystal violet staining-based assay relative to control
[3] = Inhibition of TNF-alpha-activated NFkappaB (unknown origin) transfected in HEK293 cells after 6 hrs by luciferase reporter gene assay; format: cell-based; settings: Homo sapiens, HEK293, 6 h

SMILES	fold change (FC) [2]	Activity [1]	inhibition (HEK293) [%]	also measured
O=C1O[C@@H]2[C@@H](O)CO[C@]2(O)[C@@]1(O)C/C=C/c1ccc(O)c(O)c1		Non-Toxic	70	
COc1cc2oc(=O)ccc2cc1O[C@@H]1O[C@H](CO)[C@@H](O)[C@H](O)[C@H]1O				Activity [2]: Active
C[C@@H]1O[C@@H](OC[C@H]2O[C@@H](Oc3c(-c4ccc(O)cc4)oc4cc(O)cc(O)c4c3=O)[C@H](O)[C@@H](O)[C@@H]2O)[C@H](O)[C@H](O)[C@H]1O [NICOTIFLOROSIDE]		Non-Toxic	62	
Cc1ccc(S(=O)(=O)N[C@@H](Cc2ccccc2)C(=O)CCl)cc1 [TPCK]				IC50 [3]: 3.8 µM

Second part, led by results:

fold change (FC) [2]	SMILES	Activity [1]	inhibition (HEK293) [%]	also measured
2.3	CCCCO[C@H]1C=C(CO)[C@H]2[C@H](O[C@@H]3O[C@H](CO)[C@@H](O)[C@H](O)[C@H]3O)OC=C(C(=O)O)[C@H]21			
2.5	COC(=O)C1=CO[C@@H](O[C@@H]2O[C@H](CO)[C@@H](O)[C@H](O)[C@H]2O)[C@@H]2C(CO)=C[C@@H](O)[C@H]12			
